Experimental data as given in PubChem BioAssay AID330 (DTP/NCI, 2004).
Where “and” joins values, the source holds several entries; their conditions need not be identical. Equal values may be shown once. Inconclusive results and toxic doses are left out. The calls were made as follows: active = survival T/C of 150% or more; inactive = T/C below 125% in these data.

Tested on: P388 leukemia ip, CD2F1 mice, survival T/C
Assay: NCI In Vivo Anticancer Drug Screen. Data for tumor model P388 Leukemia (intraperitoneal) in CD2F1 (CDF1) mice
Settings: endpoint: median survival time, higher = longer survival
In short: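 Mice carrying the transplanted tumor received test compound or vehicle. Survival was recorded in each group, and the value is the treated-group measurement divided by that of the vehicle-treated control group.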

[1] = dose: 50.0 mg/kg/injection, schedule: Q01DX005 (ip), vehicle: Klucel (hydroxypropylcellulose) (HPC)
[2] = dose: 100.0 mg/kg/injection, schedule: Q01DX005 (ip), vehicle: Klucel (hydroxypropylcellulose) (HPC)
[3] = dose: 12.5 mg/kg/injection, schedule: Q01DX005 (ip), vehicle: saline with Tween-80
[4] = dose: 25.0 mg/kg/injection, schedule: Q01DX005 (ip), vehicle: saline with Tween-80
[5] = dose: 50.0 mg/kg/injection, schedule: Q01DX005 (ip), vehicle: saline with Tween-80
[6] = dose: 100.0 mg/kg/injection, schedule: Q01DX001 (ip), vehicle: saline with Tween-80
[7] = dose: 200.0 mg/kg/injection, schedule: Q01DX001 (ip), vehicle: saline with Tween-80
[8] = dose: 60.0 mg/kg/injection, schedule: Q01DX005 (ip), vehicle: Klucel (hydroxypropylcellulose) (HPC)
[9] = dose: 120.0 mg/kg/injection, schedule: Q01DX005 (ip), vehicle: Klucel (hydroxypropylcellulose) (HPC)
[10] = dose: 240.0 mg/kg/injection, schedule: Q01DX005 (ip), vehicle: Klucel (hydroxypropylcellulose) (HPC)
[11] = dose: 30.0 mg/kg/injection, schedule: Q01DX005 (ip), vehicle: Klucel (hydroxypropylcellulose) (HPC)
[12] = dose: 50.0 mg/kg/injection, schedule: Q01DX009 (ip), vehicle: saline
[13] = dose: 100.0 mg/kg/injection, schedule: Q01DX009 (ip), vehicle: saline
[14] = dose: 200.0 mg/kg/injection, schedule: Q01DX009 (ip), vehicle: saline
[15] = dose: 60.0 mg/kg/injection, schedule: Q01DX005 (ip), vehicle: saline with Tween-80
[16] = dose: 120.0 mg/kg/injection, schedule: Q01DX005 (ip), vehicle: saline with Tween-80
[17] = dose: 240.0 mg/kg/injection, schedule: Q01DX005 (ip), vehicle: saline with Tween-80

Measured: T/C

OCC1OC(n2ccc3c(NO)ncnc32)C(O)C1O (configuration not stated)
inactive: dose: 0.46 mg/kg/injection, schedule: Q01DX005 (ip), vehicle: Klucel (hydroxypropylcellulose) (HPC) 112 % of control

C=C(COC(C)=O)[C@@H](C)C(=O)C1OCOC(C2CC(=O)NC(=O)C2)[C@@H]1OC(C)=O (some centres not stated)
inactive: dose: 0.01 mg/kg/injection, schedule: Q01DX009 (ip), vehicle: distilled water + alcohol 98 % of control | dose: 0.03 mg/kg/injection, schedule: Q01DX009 (ip), vehicle: distilled water + alcohol 102 % of control | dose: 0.06 mg/kg/injection, schedule: Q01DX009 (ip), vehicle: distilled water + alcohol 102 % of control | dose: 0.12 mg/kg/injection, schedule: Q01DX009 (ip), vehicle: distilled water + alcohol 102 % of control

C=CCN=C(NC(C)(C)C)c1ccccc1
inactive: [1] 107 % of control | [2] 96 % of control

CN(C)c1ccc2c(Cl)ccnc2c1
inactive: [3] 100 % of control | [4] 103 % of control | [5] 103 % of control and 86 % of control

Cc1ccccc1OC(=O)Nc1ccc(C(=O)O)c(O)c1
inactive: [6] 95 % of control | [7] 109 % of control

CC1SC2(C(=O)Nc3ccccc32)N(c2ccc(O)cc2)C1=O (configuration not stated)
inactive: [8] 91 % of control | [9] 100 % of control | [10] 94 % of control

Nc1[nH]c(=S)[nH]c(=O)c1NS(=O)(=O)c1ccccc1[N+](=O)[O-]
inactive: [11] 100 % of control and 94 % of control | [8] 98 % of control and 100 % of control | [9] 100 % of control and 97 % of control | [10] 100 % of control

CCOC(=O)NN(C(=O)OCC)C(C(C)=O)C(C)=O
inactive: [8] 104 % of control | [9] 101 % of control | [10] 98 % of control

CC(=O)Nc1ccc(S(=O)(=O)Nc2ccc3[nH]c(=O)oc3c2)cc1
inactive: dose: 50.0 mg/kg/injection, schedule: Q04DX002 (ip), vehicle: Klucel (hydroxypropylcellulose) (HPC) 104 % of control | dose: 100.0 mg/kg/injection, schedule: Q04DX002 (ip), vehicle: Klucel (hydroxypropylcellulose) (HPC) 97 % of control | dose: 200.0 mg/kg/injection, schedule: Q04DX002 (ip), vehicle: Klucel (hydroxypropylcellulose) (HPC) 97 % of control

CC(=O)OCC#CCN1CCCCC1C (configuration not stated)
inactive: dose: 50.0 mg/kg/injection, schedule: Q01DX005 (ip), vehicle: saline 111 % of control | dose: 100.0 mg/kg/injection, schedule: Q01DX005 (ip), vehicle: saline 101 % of control | dose: 200.0 mg/kg/injection, schedule: Q01DX005 (ip), vehicle: saline 103 % of control

c1cc[c]([Sn]([O][Sn]([c]2ccccc2)([c]2ccccc2)[c]2ccccc2)([c]2ccccc2)[c]2ccccc2)cc1
inactive: dose: 0.38 mg/kg/injection, schedule: Q04DX003 (ip), vehicle: saline 110 % of control | dose: 0.75 mg/kg/injection, schedule: Q04DX003 (ip), vehicle: saline 113 % of control | dose: 1.5 mg/kg/injection, schedule: Q04DX003 (ip), vehicle: saline 98 % of control | dose: 3.13 mg/kg/injection, schedule: Q04DX003 (ip), vehicle: Klucel (hydroxypropylcellulose) (HPC) 90 % of control | dose: 6.25 mg/kg/injection, schedule: Q04DX003 (ip), vehicle: saline with Tween-80 105 % of control

COC1OC(COC(=O)c2ccccc2)C(=O)C(OC(=O)c2ccccc2)C1N(O)c1ccccc1 (configuration not stated)
inactive: dose: 7.5 mg/kg/injection, schedule: Q01DX005 (ip), vehicle: Klucel (hydroxypropylcellulose) (HPC) 99 % of control | dose: 15.0 mg/kg/injection, schedule: Q01DX005 (ip), vehicle: Klucel (hydroxypropylcellulose) (HPC) 104 % of control | [11] 95 % of control

CC(=O)OCC1OC(n2cnc3c(Cl)nc(Cl)nc32)C(OC(C)=O)C1OC(C)=O (configuration not stated)
inactive: [1] 102 % of control | [2] 102 % of control | dose: 200.0 mg/kg/injection, schedule: Q01DX005 (ip), vehicle: Klucel (hydroxypropylcellulose) (HPC) 115 % of control

CSC(/C=N\O)=N/O
inactive: dose: 50.0 mg/kg/injection, schedule: Q01DX009 (ip), vehicle: Klucel (hydroxypropylcellulose) (HPC) 88 % of control | dose: 100.0 mg/kg/injection, schedule: Q01DX009 (ip), vehicle: Klucel (hydroxypropylcellulose) (HPC) 106 % of control | dose: 200.0 mg/kg/injection, schedule: Q01DX009 (ip), vehicle: Klucel (hydroxypropylcellulose) (HPC) 109 % of control

CC(=O)ON(C(=O)c1ccc([N+](=O)[O-])cc1)c1ccc(C=O)cc1
inactive: [6] 102 % of control | [7] 101 % of control

O=C(O)C1OC1C(=O)O (configuration not stated)
inactive: dose: 75.0 mg/kg/injection, schedule: Q04DX003 (ip), vehicle: saline 100 % of control | dose: 150.0 mg/kg/injection, schedule: Q04DX003 (ip), vehicle: saline 100 % of control | dose: 300.0 mg/kg/injection, schedule: Q04DX003 (ip), vehicle: saline 100 % of control

CNC(=S)N/N=C(/C)CSCC(=O)OC
inactive: [12] 100 % of control | [13] 92 % of control | [14] 91 % of control

COc1ccc(NC(=O)Oc2ccc3c(C)cc(=O)oc3c2)c(OC)c1 (tested in a mixture with another compound)
inactive: [15] 106 % of control and 117 % of control | [16] 120 % of control and 121 % of control

CC(=O)OCc1cnccc1Cl
inactive: dose: 100.0 mg/kg/injection, schedule: Q04DX002 (ip), vehicle: saline with Tween-80 100 % of control | dose: 200.0 mg/kg/injection, schedule: Q04DX002 (ip), vehicle: saline with Tween-80 102 % of control | dose: 400.0 mg/kg/injection, schedule: Q04DX002 (ip), vehicle: saline with Tween-80 94 % of control

CC(=O)c1oc(C)nc1C
inactive: [12] 104 % of control | [13] 100 % of control | [14] 104 % of control

O=[N+]([O-])c1ccc(/C=C/C=C\c2ccc(S(=O)(=O)F)cc2Cl)cc1
inactive: [15] 94 % of control | [16] 96 % of control | [17] 95 % of control

CC(O)CN=Cc1ccccc1[O-].CC(O)CN=Cc1ccccc1[O-].[Cu+2] (configuration not stated)
inactive: dose: 15.0 mg/kg/injection, schedule: Q01DX005 (ip), vehicle: saline with Tween-80 95 % of control | dose: 30.0 mg/kg/injection, schedule: Q01DX005 (ip), vehicle: saline with Tween-80 94 % of control | [15] 101 % of control and 89 % of control

CCOC(=O)/C(C#N)=C/Nc1[nH]c(=O)c(C#N)c(-c2ccc(Cl)cc2)c1SC
inactive: [15] 110 % of control | [16] 100 % of control | [17] 108 % of control

CCc1nnc2cccc(Cl)n12
inactive: dose: 100.0 mg/kg/injection, schedule: Q01DX001 (ip), vehicle: Klucel (hydroxypropylcellulose) (HPC) 100 % of control | dose: 200.0 mg/kg/injection, schedule: Q01DX001 (ip), vehicle: Klucel (hydroxypropylcellulose) (HPC) 109 % of control | dose: 400.0 mg/kg/injection, schedule: Q01DX001 (ip), vehicle: Klucel (hydroxypropylcellulose) (HPC) 100 % of control

CC(C)(C)NC(=O)NCCCCCCNC(=O)NC(C)(C)C
inactive: [15] 96 % of control | [16] 96 % of control | [17] 101 % of control

CN1C(c2ccccc2Cl)C2CCCC(C2O)C1c1ccccc1Cl (configuration not stated)
inactive: dose: 100.0 mg/kg/injection, schedule: Q04DX003 (ip), vehicle: saline 100 % of control | dose: 200.0 mg/kg/injection, schedule: Q04DX003 (ip), vehicle: saline 100 % of control | dose: 400.0 mg/kg/injection, schedule: Q04DX003 (ip), vehicle: saline 95 % of control

NC(CC1C=CCCC1)C(=O)O (configuration not stated)
inactive: [8] 98 % of control | [9] 98 % of control | [10] 95 % of control

CC(=O)Nc1[c-]cccc1.CC(=O)Nc1[c-]cccc1.CC(=O)O.CC(=O)O.[Pd].[Pd]
inactive: dose: 6.25 mg/kg/injection, schedule: Q01DX005 (ip), vehicle: saline with Tween-80 94 % of control | [3] 95 % of control and 98 % of control | [4] 119 % of control and 98 % of control | [5] 100 % of control and 110 % of control

COc1ccc(/C(C#N)=C2\OC(=O)c3ccccc32)cc1OC
inactive: dose: 6.25 mg/kg/injection, schedule: Q01DX009 (ip), vehicle: saline with Tween-80 97 % of control | dose: 12.5 mg/kg/injection, schedule: Q01DX009 (ip), vehicle: saline with Tween-80 89 % of control | dose: 50.0 mg/kg/injection, schedule: Q01DX009 (ip), vehicle: saline with Tween-80 90 % of control | dose: 400.0 mg/kg/injection, schedule: Q01DX009 (ip), vehicle: saline with Tween-80 90 % of control
